Where a name gives a salt, the structure may show the parent alone. Read-outs that look alike come from different tables or passages of the source.
Assays:
C57BL/6JOlaHsd mice [1] = assay type: in vivo; conditions: for DOI-induced repetitive head twitches: dose not given
Sabra mice = test: Ultrasonic vocals, SR141716A-induced vocal tic-like behavior; assay type: in vivo
C57BL/6JOlaHsd mice [2] = test: Marble burying test (compulsive behavior); assay type: in vivo; conditions: age 6 weeks, one hour after a single injection
Procedure: Mice were habituated to the test room for 1 h. A mouse was injected with DOI as above and then placed in the experimental cage (white plastic 36×24.5 ×14.5 cm) filled with 5 cm sawdust for 5 min, in the absence of marbles. The mouse was taken out and twenty black glass were arranged 4 by 5 with 7 cm apart and 1 cm apart from the wells of the cage. Each mouse was tested for its marble burying activity for 30 min. Activity was videotaped with EthoVision and buried marbles were counted manually at the end of the experiment (after 30 min). A marble considered as buried when it was sawdust-covered by two third of its volume. Marbles that were moved were also counted.
With a view to study the effect of the JTE-907 and M1 compositions on repetitive behavior, C57BL/6JOlaHsd mice were intraperitoneally injected at age 6 weeks with a single dose of JTE-907 at 0.2-50 mg/kg, M1 at 0.2-50 mg/kg or equivalent vehicle. The number of buried marbles in the burying marble test by each mouse was recorded.

C57BL/6JOlaHsd mice [3] = test: Head twitch response after drug alone (saline instead of DOI); assay type: in vivo
Procedure: (§1) After DOI or saline injection, mice were placed in a transparent glass cage 30×40×31 cm divided into squares of 7.5×7.5 cm. Head twitch responses (HTRs) were manually counted by an observer. The HTR in mice is a distinctive behavior that cannot be misplaced with other head movements. After 5 min habitation to the cage the HTR were counted every 3 min for 15 min (a total of 20 min in the cage).
(§2) With a view to further study the effect of the MH compositions on repetitive behavior, C57BL/6JOlaHsd mice were intraperitoneally injected at age 3 weeks or 6 weeks with a single dose of MH at 0.2-50 mg/kg or equivalent vehicle. Optionally, one hour later mice received a single injection of saline (i.e. in the absence of DOI to test the effect of MH alone). HTR responses, ESR and grooming responses in mice were recorded.
With a view to further study the effect of the HU-308 compositions on repetitive behavior, C57BL/6JOlaHsd mice were intraperitoneally injected at age 3 weeks with a single dose of HU-308 at 0.2-50 mg/kg or equivalent vehicle one hour later mice received a single injection of saline (i.e. in the absence of DOI to test the effect of HU-308 alone). HTR responses and ESR responses in mice were recorded.

[4] = 5 mg/kg during postnatal days 5-13; U.S. Pat. No. 9,486,419; cited from earlier work
[5] = test system: CB2 receptor knockout mice; test: DOI-induced head twitch response (HTR) in CB2 receptor knockout mice; assay type: in vivo
Procedure: (§3) • 1. CB2 receptor selective ligands or CB2/SERM ligands were injected intraperitoneally or orally at doses of 0.001 to 100 mg/kg one to two hours before the injection of DOI. In order to test the effect of DOI on head twitch responses, ear scratch and grooming responses, DOI was intraperitoneally injected at a dose of 1 mg/kg.
as §1
With a view to further study the effect of the MH compositions on repetitive behavior, CB2 receptor knockout mice (The Jackson Laboratory) were intraperitoneally injected at age 3 weeks or 6 weeks with a single dose of MH at 0.2-50 mg/kg or equivalent vehicle. One hour later mice were intraperitoneally injected a single dose of 1 mg/kg DOI or saline. HTR responses, grooming and ESR responses in mice were recorded.
With a view to further study the effect of the HU-308 compositions on repetitive behavior, CB2 receptor knockout mice (The Jackson Laboratory) were intraperitoneally injected at age 3 weeks or 6-21 weeks with a single dose of HU-308 at 0.2-50 mg/kg or equivalent vehicle. One hour later mice were intraperitoneally injected a single dose of 1 mg/kg DOI or saline. HTR responses and ESR responses in mice were recorded.

CB2 receptor = CB2 receptor (Homo sapiens, UniProt P34972); conditions: Schuehly et al. 2011; read-out: Ki, CB2 receptor ligand; cited from earlier work
C57BL/6JOlaHsd mice [6] = test: DOI-induced ear scratch response (ESR) / urge-like behavior; assay type: in vivo
Procedure: as §3
(§4) ESR behavior is a measure for urge-like behavior and often preceded HTRs. The ESR is a rapid scratching movement of the head, neck, ears, or other body surfaces by either hindlimbs. The number of ESRs was manually counted. Every ESR was also counted as a grooming. In some experiments, each ESR was considered as a separate episode if the animal moved. In some experiments, each ESR was considered as a separate episode for every ESR.
In order to further study the effect of the MH compositions on repetitive behavior, C57BL/6JOlaHsd mice were intraperitoneally injected at age 3 weeks or 6 weeks with a single dose of MH at 0.2-50 mg/kg or equivalent vehicle. One hour later mice were intraperitoneally injected a single dose of 1 mg/kg DOI or saline. HTR responses and ESR responses in mice were recorded.

C57BL/6JOlaHsd mice [7] = test: ESR/grooming (urge-like response) after drug alone; assay type: in vivo; conditions: doses 1-20 mg/kg i.p., age 6 weeks, no DOI
Excerpt: as §4
Grooming behavior is a measure for anxiety. Grooming behavior in mice is characterized by licking its fur, groom with the forepaws, or scratch with any limb. Often the mouse will mix all of these grooming behaviors. The number of grooms was manually counted. In some experiments, each grooming behavior was considered as a separate episode if the animal moved its hindlimbs. In some experiments, each grooming behavior was considered as a separate episode for every grooming behavior.
as §2

[8] = 10 mg/kg i.p. single dose, age 3 weeks, one hour before DOI 1 mg/kg i.p.
[9] = 0.2 mg/kg i.p., age 3 weeks, one hour before DOI
[10] = 5 mg/kg i.p., age 3 weeks, one hour before DOI 1 mg/kg

Sequence of CB2 receptor (P34972 whole entry): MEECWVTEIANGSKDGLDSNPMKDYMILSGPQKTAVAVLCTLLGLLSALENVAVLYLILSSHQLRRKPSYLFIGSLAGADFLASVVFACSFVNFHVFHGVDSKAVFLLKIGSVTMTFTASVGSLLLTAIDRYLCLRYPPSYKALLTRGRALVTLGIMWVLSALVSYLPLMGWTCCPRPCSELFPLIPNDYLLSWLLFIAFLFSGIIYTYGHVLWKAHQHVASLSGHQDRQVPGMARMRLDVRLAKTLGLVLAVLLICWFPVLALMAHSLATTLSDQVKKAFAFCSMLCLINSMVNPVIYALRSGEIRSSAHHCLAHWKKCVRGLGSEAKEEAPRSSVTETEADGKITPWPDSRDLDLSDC

CCN(CC)CCOc1ccc(C(=C(Cl)c2ccccc2)c2ccccc2)cc1 [clomiphene citrate]
DOI-induced HTR frequency (C57BL/6JOlaHsd mice [1]; [8]): did not significantly reverse

O=C(c1ccc(OCCN2CCCCC2)cc1)c1c(-c2ccc(O)cc2)sc2cc(O)ccc12 [raloxifene]
DOI-induced HTR frequency (C57BL/6JOlaHsd mice [1]; [8]): reduced

Cc1c(C(=O)NN2CCCCC2)nn(-c2ccc(Cl)cc2Cl)c1-c1ccc(Cl)cc1 [SR141716A]
vocalization vs control litter mates (Sabra mice; administered to mice pups at the age of one to two days): higher level of vocalization and/or higher number of vocals

CCCCCOc1c(OC)ccc2cc(C(=O)NCc3ccc4c(c3)OCO4)c(=O)[nH]c12 [JTE-907, N-(benzo[1,3]dioxol-5-ylmethyl)-7-methoxy-2-oxo-8-pentyloxy-1,2-dihydroquinoline-3-carboxamide]
number of buried marbles (C57BL/6JOlaHsd mice [2]; 5 mg/kg i.p.): reduced | DOI-induced HTR frequency (C57BL/6JOlaHsd mice [1]; [9]): reduced | DOI-induced HTR frequency (C57BL/6JOlaHsd mice [1]; [10]): reduced

C=C1CC/C=C(\C)CC[C@@H]2[C@@H]1CC2(C)C [BCP, beta-caryophyllene]
DOI-induced repetitive head twitches (C57BL/6JOlaHsd mice [1]): able to reduce

CCCCCCC(C)(C)c1cc(OC)c([C@@H]2C=C(CO)[C@@H]3C[C@H]2C3(C)C)c(OC)c1 [HU-308, [(1R,2R,5R)-2-[2,6-dimethoxy-4-(2-methyloctan-2-yl)phenyl]-7,7-dimethyl-4-bicyclo[3.1.1]hept-3-enyl] methanol]
DOI-induced HTR frequency (C57BL/6JOlaHsd mice [1]; [9]): reduced | DOI-induced HTR frequency (C57BL/6JOlaHsd mice [1]; [10]): reduced | DOI-induced repetitive head twitches (C57BL/6JOlaHsd mice [1]): able to reduce | repetitive behavior (HTR), drug alone (C57BL/6JOlaHsd mice [3]; 0.2 mg/kg i.p., age 3 weeks, saline instead of DOI): significantly increased | motor tics/head twitches at the age of 12 weeks, open field test [4]: induce abnormal motor tics/head twitches | DOI-induced HTR frequency in CB2 receptor knockout mice ([5]; 5 mg/kg i.p., male, age 6-21 weeks, DOI 1 mg/kg): significantly reduces

C=CCc1ccc(O)c(-c2ccc(OC)c(CC=C)c2)c1 [MH, 2-(4-Methoxy-3-prop-2-enylphenyl)-4-prop-2-enylphenol]
number of buried marbles (C57BL/6JOlaHsd mice [2]; 10 mg/kg i.p.): reduced | Ki (CB2 receptor): 50 nM | vocal tic-like behavior (number of ultrasonic vocal events) (Sabra mice; SR141716A 5 mg/kg s.c. postnatal day 1-3, drug s.c. at age 13 days, one hour before recording): significantly reduces | frequency of DOI-induced ESR behavior (C57BL/6JOlaHsd mice [6]; i.p., one hour before DOI 1 mg/kg): reduced | urge-like response (grooming/ESR), drug alone (C57BL/6JOlaHsd mice [7]): did not induce urge-like response at any dose | DOI-induced HTRs (C57BL/6JOlaHsd mice [1]; 1 mg/kg i.p., age 3 weeks, one hour before DOI 1 mg/kg): reduced | DOI-induced HTRs (C57BL/6JOlaHsd mice [1]; 1 mg/kg i.p., age 6 weeks, one hour before DOI 1 mg/kg): reduced | DOI-induced HTR frequency (C57BL/6JOlaHsd mice [1]; 1 mg/kg oral (gavage) in self-emulsifying oral formulation, age 3 weeks, two hours before DOI 1 mg/kg i.p.): significantly reduced | DOI-induced HTR frequency (C57BL/6JOlaHsd mice [1]; [10]): reduced | DOI-induced HTRs (C57BL/6JOlaHsd mice [1]; 5 mg/kg i.p., age 6 weeks, one hour before DOI 1 mg/kg): reduced | DOI-induced HTR frequency (C57BL/6JOlaHsd mice [1]; 5 mg/kg oral (gavage) in self-emulsifying oral formulation, age 3 weeks, two hours before DOI 1 mg/kg i.p.): significantly reduced | effect to reverse DOI-induced HTR, age 3 weeks vs 6 weeks (C57BL/6JOlaHsd mice [1]; i.p., after 20 min from DOI injection): higher at age 3 weeks than 6 weeks | effect on DOI-induced HTR frequency, 1 mg/kg vs 5 mg/kg (C57BL/6JOlaHsd mice [1]; oral formulation, age 3 weeks): greater than this of 5 mg/kg | HTR, drug alone (C57BL/6JOlaHsd mice [3]; doses 1-20 mg/kg i.p., age 6 weeks, no DOI): did not induce HTR at any dose | DOI-induced HTR frequency in CB2 receptor knockout mice ([5]; mouse, in vivo): did not reduce

COc1cc(CC(C)N)c(OC)cc1I.Cl (single isomer, unassigned; (-)) [DOI, (−)-1-(2,5-dimethoxy-4-iodophenyl)-2-aminopropane hydrochloride]
ESR frequency, DOI vs control mice (C57BL/6JOlaHsd mice [6]; DOI 1 mg/kg i.p.): increased | HTR frequency, model mice (DOI) vs control mice (C57BL/6JOlaHsd mice [1]; DOI 1 mg/kg i.p., age 3 weeks): increased | HTR frequency in CB2 receptor knockout mice after DOI ([5]; DOI 1 mg/kg i.p., age 6 weeks): increased

Reference: US20190321355A1, “TREATMENT OF MENTAL, MOVEMENT AND BEHAVIORAL DISORDERS” (priority 2016, published 2019)
